# Experimental data taken from ChEMBL document CHEMBL1145454, “Endiandrin A, a potent glucocorticoid receptor binder isolated from the Australian plant Endiandra anthropophagorum” (J Nat Prod, 2007).
# Target: T1, Glucocorticoid receptor (Homo sapiens, UniProt P04150)
# T1 sequence (P04150 whole entry): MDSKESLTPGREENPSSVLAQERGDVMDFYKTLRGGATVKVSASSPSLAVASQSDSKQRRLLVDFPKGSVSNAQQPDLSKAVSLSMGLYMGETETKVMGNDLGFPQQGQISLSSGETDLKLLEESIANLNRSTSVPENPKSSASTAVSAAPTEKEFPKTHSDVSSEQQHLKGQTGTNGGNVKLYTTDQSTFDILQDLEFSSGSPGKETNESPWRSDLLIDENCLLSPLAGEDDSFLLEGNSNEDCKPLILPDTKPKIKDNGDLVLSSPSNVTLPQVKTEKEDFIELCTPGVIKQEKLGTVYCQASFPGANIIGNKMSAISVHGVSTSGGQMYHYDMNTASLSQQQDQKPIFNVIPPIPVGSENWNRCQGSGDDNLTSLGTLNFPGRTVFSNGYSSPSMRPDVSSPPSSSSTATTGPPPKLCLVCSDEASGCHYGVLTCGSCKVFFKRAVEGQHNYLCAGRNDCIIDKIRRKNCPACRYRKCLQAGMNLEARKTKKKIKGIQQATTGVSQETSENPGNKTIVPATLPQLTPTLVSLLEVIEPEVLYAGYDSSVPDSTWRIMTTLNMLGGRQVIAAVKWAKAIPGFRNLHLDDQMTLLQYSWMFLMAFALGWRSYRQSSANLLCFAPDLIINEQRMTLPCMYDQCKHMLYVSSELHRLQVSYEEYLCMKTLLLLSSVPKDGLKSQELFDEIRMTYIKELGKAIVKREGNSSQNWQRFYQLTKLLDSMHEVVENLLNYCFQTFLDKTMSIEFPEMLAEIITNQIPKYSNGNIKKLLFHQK
# Test: Binding affinity to glucocorticoid receptor by GR binding assay
row,IC50,SMILES
1,34 µM,COc1cc([C@@H]2[C@@H](C)[C@H](C)[C@H]2c2ccc(OC(C)=O)c(OC)c2)ccc1OC(C)=O [DI-O-ACETYLENDIANDRIN A]
2,13 µM,COc1ccc([C@@H]2[C@@H](C)[C@H](C)[C@H]2c2ccc(OC)c(OC)c2)cc1OC [DI-O-METHYLENDIANDRIN A]
3,27 µM,COc1cc([C@H]2O[C@@H](c3ccc(O)c(OC)c3)[C@H](C)[C@@H]2C)ccc1O [NECTANDRIN B]

# The remaining lines, values behind:
row,SMILES,IC50
1,COc1cc(C[C@@H](C)[C@H](C)Cc2ccc(O)c(OC)c2)ccc1O [(-)-DIHYDROGUAIARETICACID],35 µM
2,COc1cc([C@@H]2[C@@H](C)[C@H](C)[C@H]2c2ccc(O)c(OC)c2)ccc1O [ENDIANDRIN A],0.9 µM
